pIC50: −log10 of the molar value.
Tests used:
[1] = target: T1, GRK5 (Homo sapiens, UniProt P34947); assay: Lance Kinase Activity Assay, GRK5; settings: biochemical Lance kinase activity assay; class symbols A-F; read-out: GRK5 LANCE Assay (IC-50)
T1 construct: purchased Thermo Scientific
Method in brief: (§1)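 IC50s from sigmoidal dose-response over 0.0025-10 μM compound, with phosphorylated ULight substrate detected by Eu anti-phospho antibody FRET after EDTA quench.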

[2] = target: T2, GRK2 (Homo sapiens, UniProt P25098); assay: Lance Kinase Activity Assay, GRK2; settings: biochemical Lance kinase activity assay; class symbols A-F; read-out: GRK2 LANCE Assay (IC-50)
T2 construct: purchased Thermo Scientific
T2 sequence (P25098 1-689): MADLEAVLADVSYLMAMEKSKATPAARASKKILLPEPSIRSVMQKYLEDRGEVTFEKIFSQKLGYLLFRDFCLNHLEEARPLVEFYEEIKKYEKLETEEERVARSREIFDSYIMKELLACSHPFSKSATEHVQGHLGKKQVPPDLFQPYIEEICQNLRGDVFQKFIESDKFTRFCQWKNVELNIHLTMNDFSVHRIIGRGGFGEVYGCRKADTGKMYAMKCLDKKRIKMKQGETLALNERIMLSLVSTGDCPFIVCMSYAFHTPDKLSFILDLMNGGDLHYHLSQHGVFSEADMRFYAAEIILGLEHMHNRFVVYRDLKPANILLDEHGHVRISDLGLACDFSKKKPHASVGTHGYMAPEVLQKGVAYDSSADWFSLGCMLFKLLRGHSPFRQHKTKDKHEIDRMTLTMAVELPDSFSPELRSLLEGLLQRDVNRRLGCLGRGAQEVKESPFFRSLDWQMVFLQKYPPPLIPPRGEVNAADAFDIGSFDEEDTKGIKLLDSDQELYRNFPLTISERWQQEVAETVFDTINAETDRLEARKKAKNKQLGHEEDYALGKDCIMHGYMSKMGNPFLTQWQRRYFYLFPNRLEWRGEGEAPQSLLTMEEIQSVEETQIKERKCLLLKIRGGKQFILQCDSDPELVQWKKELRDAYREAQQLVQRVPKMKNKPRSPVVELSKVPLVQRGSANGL
Method in brief: as §1

T1 sequence (P34947 whole entry): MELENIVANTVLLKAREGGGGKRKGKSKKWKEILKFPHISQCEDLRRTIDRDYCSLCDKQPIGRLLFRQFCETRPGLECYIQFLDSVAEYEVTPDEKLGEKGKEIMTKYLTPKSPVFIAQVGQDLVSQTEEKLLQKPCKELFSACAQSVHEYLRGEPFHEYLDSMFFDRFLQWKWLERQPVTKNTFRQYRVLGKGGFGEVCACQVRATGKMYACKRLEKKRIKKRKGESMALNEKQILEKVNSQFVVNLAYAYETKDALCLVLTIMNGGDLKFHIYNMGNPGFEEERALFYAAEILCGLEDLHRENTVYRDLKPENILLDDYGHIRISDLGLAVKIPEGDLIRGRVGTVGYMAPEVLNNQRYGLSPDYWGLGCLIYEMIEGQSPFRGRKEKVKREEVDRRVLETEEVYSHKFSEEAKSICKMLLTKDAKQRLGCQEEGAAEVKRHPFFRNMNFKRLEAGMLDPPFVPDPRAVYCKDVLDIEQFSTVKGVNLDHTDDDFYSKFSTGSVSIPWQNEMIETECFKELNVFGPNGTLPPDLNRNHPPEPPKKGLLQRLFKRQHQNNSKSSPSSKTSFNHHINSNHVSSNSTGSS

Row | Structure (SMILES) | pIC50 [1] | pIC50 [2]
1 | COc1ccc([C@@H](C)NC(=O)/C(C#N)=C/c2c[nH]c3ncc(-c4ccc(C(F)(F)F)cc4)cc23)cc1OC [Example 119] | 5.00 to 6.00 | < 5.00
2 | COc1ccc([C@@H](C)NC(=O)/C(C#N)=C/c2c[nH]c3ncc(-c4cncnc4)cc23)cc1OC [Example 120, (R,E)-2-cyano-N-(1-(3,4-dimethoxyphenyl)ethyl)-3-(5-(pyrimidin-5-yl)-1H-pyrrolo[2,3-b]pyridin-3-yl)acrylamide] | 7.00 to 7.30 | 5.00 to 6.00
3 | COc1ccc([C@@H](C)NC(=O)/C(C#N)=C/c2c[nH]c3ncc(-c4ccc(F)cc4OC)cc23)cc1OC [Example 123] | 6.30 to 7.00 | < 5.00
4 | COc1ccc([C@@H](C)NC(=O)/C(C#N)=C/c2c[nH]c3ncc(-c4ccc(C(N)=O)cc4)cc23)cc1OC [Example 126, (R,E)-4-(3-(2-cyano-3-((1-(3,4-dimethoxyphenyl)ethyl)amino)-3-oxoprop-1-en-1-yl)-1H-pyrrolo[2,3-b]pyridin-5-yl)benzamide] | 7.00 to 7.30 | < 5.00
5 | COc1ccc([C@@H](C)NC(=O)/C(C#N)=C/c2c[nH]c3ncc(-c4ccccc4CN4CCCCC4)cc23)cc1OC [Example 129, (R,E)-2-cyano-N-(1-(3,4-dimethoxyphenyl)ethyl)-3-(5-(2-(piperidin-1-ylmethyl)phenyl)-1H-pyrrolo[2,3-b]pyridin-3-yl)acrylamide] | 5.00 to 6.00 | < 5.00
6 | COc1ccc([C@@H](C)NC(=O)/C(C#N)=C/c2c[nH]c3ncc(-c4ccc(C5CCN(C)CC5)cc4)cc23)cc1OC [Example 132, (R,E)-2-cyano-N-(1-(3,4-dimethoxyphenyl)ethyl)-3-(5-(4-(1-methylpiperidin-4-yl)phenyl)-1H-pyrrolo[2,3-b]pyridin-3-yl)acrylamide] | ≥ 7.30 | 6.00 to 6.30
7 | COc1ccc([C@@H](C)NC(=O)/C(C#N)=C/c2c[nH]c3ncc(-c4ccccc4CN(C)C)cc23)cc1OC [Example 136] | 6.30 to 7.00 | < 5.00
8 | COc1ccc([C@@H](C)NC(=O)/C(C#N)=C/c2c[nH]c3ncc(-c4ccc(OCCCN(C)C)cc4)cc23)cc1OC [Example 138] | ≥ 7.30 | 6.00 to 6.30
9 | COc1ccc([C@@H](C)NC(=O)/C(C#N)=C/c2c[nH]c3ncc(-c4ccc(C#N)cc4)cc23)cc1OC [Example 139] | 7.00 to 7.30 | < 5.00
10 | COc1ccc([C@@H](C)NC(=O)/C(C#N)=C\c2c[nH]c3ncc(-c4ccc(C#N)cc4)cc23)cc1OC [Example 140, (R,Z)-2-cyano-3-(5-(4-cyanophenyl)-1H-pyrrolo[2,3-b]pyridin-3-yl)-N-(1-(3,4-dimethoxyphenyl)ethyl)acrylamide] | ≥ 7.30 | < 5.00
11 | COc1ccc([C@@H](C)NC(=O)/C(C#N)=C/c2c[nH]c3ncc(-c4ccc(NC(C)=O)cc4)cc23)cc1OC [Example 142] | ≥ 7.30 | 5.00 to 6.00
12 | COc1ccc([C@@H](C)NC(=O)/C(C#N)=C/c2c[nH]c3ncc(-c4ccncc4)cc23)cc1OC [Example 143] | ≥ 7.30 | 5.00 to 6.00
13 | COc1ccc([C@@H](C)NC(=O)/C(C#N)=C/c2c[nH]c3ncc(-c4ccc5ccccc5c4)cc23)cc1OC [Example 144] | 6.30 to 7.00 | < 5.00
14 | COc1ccc(-c2cnc3[nH]cc(/C=C(\C#N)C(=O)N[C@H](C)c4ccc(OC)c(OC)c4)c3c2)cc1OC [Example 145] | ≥ 7.30 | < 5.00
15 | COc1ccc([C@@H](C)NC(=O)/C(C#N)=C/c2c[nH]c3ncc(-c4cccc5cnn(C)c45)cc23)cc1OC [Example 150] | 6.00 to 6.30 | < 5.00
16 | COc1ccc([C@@H](C)NC(=O)/C(C#N)=C/c2c[nH]c3ncc(-c4cccc(NS(C)(=O)=O)c4)cc23)cc1OC [Example 151, (R,E)-2-cyano-N-(1-(3,4-dimethoxyphenyl)ethyl)-3-(5-(3-(methylsulfonamido)phenyl)-1H-pyrrolo[2,3-b]pyridin-3-yl)acrylamide] | ≥ 7.30 | < 5.00

Continued, values first:

Row | pIC50 [1] | pIC50 [2] | Structure (SMILES)
17 | 7.00 to 7.30 | < 5.00 | COc1ccc([C@@H](C)NC(=O)/C(C#N)=C/c2c[nH]c3ncc(-c4ccccc4)cc23)cc1OC [Example 116]
18 | ≥ 7.30 | 5.00 to 6.00 | COc1ccc([C@@H](C)NC(=O)/C(C#N)=C/c2c[nH]c3ncc(-c4cccc(CN5CCN(C)CC5)c4)cc23)cc1OC [Example 118, (R,E)-2-cyano-N-(1-(3,4-dimethoxyphenyl)ethyl)-3-(5-(3-((4-methylpiperazin-1-yl)methyl)phenyl)-1H-pyrrolo[2,3-b]pyridin-3-yl)acrylamide]
19 | 6.30 to 7.00 | < 5.00 | CCN1CCN(S(=O)(=O)c2ccc(-c3cnc4[nH]cc(/C=C(\C#N)C(=O)N[C@H](C)c5ccc(OC)c(OC)c5)c4c3)cc2)CC1 [Example 121, (R,E)-2-cyano-N-(1-(3,4-dimethoxyphenyl)ethyl)-3-(5-(4-((4-ethylpiperazin-1-yl)sulfonyl)phenyl)-1H-pyrrolo[2,3-b]pyridin-3-yl)acrylamide]
20 | ≥ 7.30 | < 5.00 | COc1ccc([C@@H](C)NC(=O)/C(C#N)=C/c2c[nH]c3ncc(-c4cccc(N5CCN(C)CC5)c4)cc23)cc1OC [Example 122, (R,E)-2-cyano-N-(1-(3,4-dimethoxyphenyl)ethyl)-3-(5-(3-(4-methylpiperazin-1-yl)phenyl)-1H-pyrrolo[2,3-b]pyridin-3-yl)acrylamide]
21 | 6.30 to 7.00 | < 5.00 | COc1ccc([C@@H](C)NC(=O)/C(C#N)=C/c2c[nH]c3ncc(-c4ccccc4OC)cc23)cc1OC [Example 124]
22 | ≥ 7.30 | < 5.00 | COc1ccc([C@@H](C)NC(=O)/C(C#N)=C/c2c[nH]c3ncc(-c4cccc(S(C)(=O)=O)c4)cc23)cc1OC [Example 125]
23 | ≥ 7.30 | < 5.00 | COc1ccc([C@@H](C)NC(=O)/C(C#N)=C/c2c[nH]c3ncc(-c4cccc(C(=O)N5CCOCC5)c4)cc23)cc1OC [Example 127, (R,E)-2-cyano-N-(1-(3,4-dimethoxyphenyl)ethyl)-3-(5-(3-(morpholine-4-carbonyl)phenyl)-1H-pyrrolo[2,3-b]pyridin-3-yl)acrylamide]
24 | 6.30 to 7.00 | < 5.00 | COc1ccc([C@@H](C)NC(=O)/C(C#N)=C/c2c[nH]c3ncc(-c4cccc(N(C)C)c4)cc23)cc1OC [Example 128, (R,E)-2-cyano-N-(1-(3,4-dimethoxyphenyl)ethyl)-3-(5-(3-(dimethylamino)phenyl)-1H-pyrrolo[2,3-b]pyridin-3-yl)acrylamide]
25 | ≥ 7.30 | < 5.00 | COc1ccc([C@@H](C)NC(=O)/C(C#N)=C/c2c[nH]c3ncc(-c4cccnc4)cc23)cc1OC [Example 130]
26 | 7.00 to 7.30 | 5.00 to 6.00 | COc1ccc([C@@H](C)NC(=O)/C(C#N)=C/c2c[nH]c3ncc(-c4cc(F)cc(F)c4)cc23)cc1OC [Example 131]
27 | 5.00 to 6.00 | 5.00 to 6.00 | COc1ccc([C@@H](C)NC(=O)/C(C#N)=C/c2c[nH]c3ncc(-c4cccc(OCCCN(C)C)c4)cc23)cc1OC [Example 133]
28 | ≥ 7.30 | 5.00 to 6.00 | COc1ccc([C@@H](C)NC(=O)/C(C#N)=C/c2c[nH]c3ncc(-c4ccc(CCN(C)C)cc4)cc23)cc1OC [Example 134]
29 | ≥ 7.30 | < 5.00 | COc1cccc(-c2cnc3[nH]cc(/C=C(\C#N)C(=O)N[C@H](C)c4ccc(OC)c(OC)c4)c3c2)c1 [Example 137, (R,E)-2-cyano-N-(1-(3,4-dimethoxyphenyl)ethyl)-3-(5-(3-methoxyphenyl)-1H-pyrrolo[2,3-b]pyridin-3-yl)acrylamide]
30 | ≥ 7.30 | 5.00 to 6.00 | COc1ccc([C@@H](C)NC(=O)/C(C#N)=C/c2c[nH]c3ncc(-c4cccc(CN5CCN(C(C)=O)CC5)c4)cc23)cc1OC [Example 141, (R,E)-3-(5-(3-((4-acetylpiperazin-1-yl)methyl)phenyl)-1H-pyrrolo[2,3-b]pyridin-3-yl)-2-cyano-N-(1-(3,4-dimethoxyphenyl)ethyl)acrylamide]
31 | 7.00 to 7.30 | < 5.00 | COc1ccc(-c2cnc3[nH]cc(/C=C(/C#N)C(=O)N[C@H](C)c4ccc(OC)c(OC)c4)c3c2)cc1OC [Example 146]
32 | ≥ 7.30 | 5.00 to 6.00 | COc1ccc([C@@H](C)NC(=O)/C(C#N)=C/c2c[nH]c3ncc(-c4ccc(N(C)C)nc4)cc23)cc1OC [Example 147, (R,E)-2-cyano-N-(1-(3,4-dimethoxyphenyl)ethyl)-3-(5-(6-(dimethylamino)pyridin-3-yl)-1H-pyrrolo[2,3-b]pyridin-3-yl)acrylamide]
33 | ≥ 7.30 | 5.00 to 6.00 | COc1ccc([C@@H](C)NC(=O)/C(C#N)=C/c2c[nH]c3ncc(-c4cccc(CN(C)C)c4)cc23)cc1OC [Example 148]
34 | ≥ 7.30 | 5.00 to 6.00 | COc1ccc([C@@H](C)NC(=O)/C(C#N)=C/c2c[nH]c3ncc(-c4cccc(S(=O)(=O)N(C)C)c4)cc23)cc1OC [Example 149]

From patent US20240294522A1 (Lead Discovery Center GmbH, priority 2021, published 2024)
